We go through 37 compounds from publication PMC5867641, “Function-Oriented Synthesis of Marine Phidianidine Derivatives as Potential PTP1B Inhibitors with Specific Selectivity” (Marine Drugs, 2018).

Read-outs that look alike come from different tables or passages of the source. Bounds are passed on as bounds.

One assay addresses T1, PTP1B (Homo sapiens, UniProt P18031).
T1 sequence (P18031 1-435): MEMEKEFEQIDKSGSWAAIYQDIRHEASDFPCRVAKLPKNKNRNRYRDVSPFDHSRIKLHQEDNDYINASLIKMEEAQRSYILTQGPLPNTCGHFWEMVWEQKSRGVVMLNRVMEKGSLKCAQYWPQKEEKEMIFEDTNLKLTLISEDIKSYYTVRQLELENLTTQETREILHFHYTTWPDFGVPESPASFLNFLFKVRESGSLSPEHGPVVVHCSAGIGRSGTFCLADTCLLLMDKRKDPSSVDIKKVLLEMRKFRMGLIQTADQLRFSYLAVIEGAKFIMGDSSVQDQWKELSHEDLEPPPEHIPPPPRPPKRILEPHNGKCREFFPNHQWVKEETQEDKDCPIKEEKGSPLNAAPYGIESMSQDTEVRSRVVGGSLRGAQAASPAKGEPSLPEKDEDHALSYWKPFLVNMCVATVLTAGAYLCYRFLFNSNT
Put plainly: PTP1B inhibition assay with p-nitrophenyl phosphate (pNPP) as substrate. Particulars: for % Inhibition (20 μM) on PTP1B: 20 μM compound, 2% DMSO; for inhibition at 20 µM: read-out: % Inhibition (20 μM) on PTP1B; for PTP1B inhibitory activity, in words: screened at 20 μM.

The target in assay [1] is T2, T-cell protein tyrosine phosphatase (TCPTP) (Homo sapiens, UniProt P17706).
T2 sequence (P17706 1-415): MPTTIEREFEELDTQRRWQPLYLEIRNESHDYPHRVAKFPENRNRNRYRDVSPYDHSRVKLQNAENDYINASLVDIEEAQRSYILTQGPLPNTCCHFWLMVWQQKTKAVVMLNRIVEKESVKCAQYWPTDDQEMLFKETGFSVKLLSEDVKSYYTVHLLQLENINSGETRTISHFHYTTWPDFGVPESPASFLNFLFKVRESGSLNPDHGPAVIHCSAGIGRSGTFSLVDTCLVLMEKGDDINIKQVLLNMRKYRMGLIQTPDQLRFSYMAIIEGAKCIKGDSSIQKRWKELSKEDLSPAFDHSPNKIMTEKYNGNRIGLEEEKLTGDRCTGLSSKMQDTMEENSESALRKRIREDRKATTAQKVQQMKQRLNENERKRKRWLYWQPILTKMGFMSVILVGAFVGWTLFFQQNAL
Put plainly: TCPTP inhibition assay (selectivity). Particulars: for inhibition at 20 µM / % Inhibition (20 μM) on TCPTP: 20 μM compound, 2% DMSO. It is filed as biochemical. On the procedure:
The selectivity of all the PTP1B inhibitory compounds was also evaluated against TCPTP.

[2] abbreviates: read-out: IC50 on PTP1B, pNPP substrate, dose-response run when inhibition >50% at 20 μM.

Turning to `NC(=NOC(=O)Cc1c[nH]c2ccccc12)c1ccccc1` [9a], the “% Inhibition (20 μM) on PTP1B” value on PTP1B (pNPP substrate) is listed as 7.3 ± 6.8%.
`NC(=NOC(=O)Cc1c[nH]c2ccccc12)c1ccc(F)cc1` [9b]: the “% Inhibition (20 μM) on PTP1B” value at PTP1B (pNPP substrate) is 14.0 ± 4.3%.
Still for that read-out and setting: next, `NC(=NOC(=O)Cc1c[nH]c2ccccc12)c1ccc(Cl)cc1` [9c]: 5.2 ± 1.8%; `NC(=NOC(=O)Cc1c[nH]c2ccccc12)c1ccc([N+](=O)[O-])cc1` [9d]: 9.8 ± 7.1%.
With `CCc1ccc(C(N)=NOC(=O)Cc2c[nH]c3ccccc23)cc1` [9e], the “% Inhibition (20 μM) on PTP1B” value on PTP1B (pNPP substrate) is 23.4 ± 3.7%.
On the same count and under the same terms, next, `c1ccc(-c2noc(Cc3c[nH]c4ccccc34)n2)cc1` [10a]: 2.4 ± 1.2%; `Fc1ccc(-c2noc(Cc3c[nH]c4ccccc34)n2)cc1` [10b]: 19.8 ± 0.1%; `Clc1ccc(-c2noc(Cc3c[nH]c4ccccc34)n2)cc1` [10c]: 40.0 ± 7.6%.
As to `O=[N+]([O-])c1ccc(-c2noc(Cc3c[nH]c4ccccc34)n2)cc1` [10d], at PTP1B (pNPP substrate), the “% Inhibition (20 μM) on PTP1B” value amounted to 44.5 ± 0.3%.
As usually defined, the IC50 is the concentration that inhibits the measured activity by half. As a reminder, the inhibition is the share of the control response that was lost under treatment. Consider `CCc1ccc(-c2noc(Cc3c[nH]c4ccccc34)n2)cc1` [10e], for which, on PTP1B, the half-inhibitory concentration (IC50) turned out to be 16.8 µM and the inhibition at 20 µM came to 50.5 ± 1.1%. The same compound returned an inhibition at 20 µM in assay [1] of 15.8%.
Take `CCc1ccc(C(=O)ON=C(N)Cc2c[nH]c3ccccc23)cc1` [13a]: the IC50 on PTP1B (setting [2]) is > 20 µM.
On the same count and under the same terms, next, `CCCCCCc1ccc(C(=O)ON=C(N)Cc2c[nH]c3ccccc23)cc1` [13c]: > 20 µM; `NC(Cc1c[nH]c2ccccc12)=NOC(=O)c1ccccc1F` [13d]: > 20 µM; `NC(Cc1c[nH]c2ccccc12)=NOC(=O)c1ccc(C(F)(F)F)cc1` [13e]: > 20 µM.
Still for that read-out and setting: next, `COc1ccc(C(=O)ON=C(N)Cc2c[nH]c3ccccc23)cc1` [13f]: > 20 µM; `COc1ccc(C(=O)ON=C(N)Cc2c[nH]c3ccccc23)c(Br)c1` [13g]: > 20 µM.
Same read-out and setting: next, `CCCCC(=O)ON=C(N)Cc1c[nH]c2ccccc12` [13h]: > 20 µM; `NC(Cc1c[nH]c2ccccc12)=NOC(=O)CCCCBr` [13i]: > 20 µM.
`CCc1ccc(-c2nc(Cc3c[nH]c4ccccc34)no2)cc1` [14a] registered an IC50 against PTP1B of 13.5 ± 0.6 µM. In assay [1], the inhibition at 20 µM is 9.22%.
`CCCCc1ccc(-c2nc(Cc3c[nH]c4ccccc34)no2)cc1` [14b]: the concentration for half-maximal inhibition (IC50) at PTP1B (setting [2]) worked out at 7.1 ± 0.1 µM. Further, the “% Inhibition (20 μM) on TCPTP” value in assay [1] stood at 50.31%.
The matching figures for `CCCCCCc1ccc(-c2nc(Cc3c[nH]c4ccccc34)no2)cc1` [14c]: 4.9 ± 0.8 µM and 54.18%.
As to `Fc1ccccc1-c1nc(Cc2c[nH]c3ccccc23)no1` [14d], at PTP1B (setting [2]), the IC50 was > 20 µM. For the same compound, the “PTP1B inhibitory activity, in words” value at PTP1B is “no activity”.
Turning to `FC(F)(F)c1ccc(-c2nc(Cc3c[nH]c4ccccc34)no2)cc1` [14e], the IC50 on PTP1B (setting [2]) is > 20 µM.
In the case of `COc1ccc(-c2nc(Cc3c[nH]c4ccccc34)no2)cc1` [14f], on PTP1B (setting [2]), the half-maximal inhibitory concentration (IC50) is > 20 µM. Further, the “PTP1B inhibitory activity, in words” value at PTP1B is recorded as “no activity”.
For `COc1ccc(-c2nc(Cc3c[nH]c4ccccc34)no2)c(Br)c1` [14g], the IC50 on PTP1B (setting [2]) is > 20 µM.
Take `CCCCc1nc(Cc2c[nH]c3ccccc23)no1` [14h]: the IC50 at PTP1B (setting [2]) is > 20 µM. The “PTP1B inhibitory activity, in words” value on PTP1B was “disappearance of the inhibitory activity”.
On to `CC(=O)OCCCCc1nc(Cc2c[nH]c3ccccc23)no1` [14i], for which the IC50 on PTP1B (setting [2]) is > 20 µM. For the same compound, the “PTP1B inhibitory activity, in words” value at PTP1B is recorded as “disappearance of the inhibitory activity”.
Consider `CC(C)c1nc(Cc2c[nH]c3ccccc23)no1` [14j], for which the IC50 at PTP1B (setting [2]) is > 20 µM.
Consider `ClC(Cl)c1nc(Cc2c[nH]c3ccccc23)no1` [14k], for which the IC50 at PTP1B (setting [2]) is > 20 µM.
Consider `c1ccc2c(Cc3noc(C4CCC4)n3)c[nH]c2c1` [14l], for which the IC50 at PTP1B (setting [2]) stood at 8.6 ± 1.5 µM. Also, the “% Inhibition (20 μM) on TCPTP” value in assay [1] came out at 25.52%.
For the compound `c1ccc2c(Cc3noc(C4CCCC4)n3)c[nH]c2c1` [14m], the concentration for half-maximal inhibition (IC50) at PTP1B (setting [2]) is > 20 µM. For the same compound, at PTP1B, the “PTP1B inhibitory activity, in words” value was “lack of activity”.
`c1ccc2c(Cc3noc(C4CCCCC4)n3)c[nH]c2c1` [14n]: the 50% inhibitory concentration (IC50) on PTP1B (setting [2]) worked out at 5.3 ± 0.7 µM. Besides, the “% Inhibition (20 μM) on TCPTP” value in assay [1] was determined as 11.68%. Moreover, in assay [1] (at the concentration of 20 μM), the “TCPTP inhibitory activity, in words” value was “lowest inhibitory percentage”.
Turning to `c1ccc(-c2nc(Cc3c[nH]c4ccccc34)no2)nc1` [14o], the IC50 at PTP1B (setting [2]) is > 20 µM.
The same measure, in the same setting: next, `Fc1ccc2[nH]cc(Cc3nc(Cc4c[nH]c5ccccc45)no3)c2c1` [14q]: > 20 µM.
With `Brc1ccc2[nH]cc(Cc3nc(Cc4c[nH]c5ccccc45)no3)c2c1` [14s], the IC50 at PTP1B (setting [2]) was 7.4 ± 0.1 µM. Further, the “% Inhibition (20 μM) on TCPTP” value in assay [1] is 34.51%.
Take `Clc1cccc2[nH]cc(Cc3nc(Cc4c[nH]c5ccccc45)no3)c12` [14u]: the half-inhibitory concentration (IC50) at PTP1B (setting [2]) was 9.7 ± 1.7 µM. Further, in assay [1], the “% Inhibition (20 μM) on TCPTP” value came out at 38.74%.
For `N=C(N)NCCCCCNc1noc(Cc2c[nH]c3ccccc23)n1` [Phidianidine B (2), phidianidine B, reference compound], the inhibition at 20 µM at PTP1B was found to be 23.5 ± 2.6%.
